{
  "source": "patent US12285397B2",
  "about": "“Use of (s)-3-amino-4-(difluoromethylenyl) cyclopent-1-ene-1-carboxylic acid and related compounds, (1S,3S)-3-amino-4-(difluoromethylidene) cyclopentane-1-carboxylic acid and vigabatrin in the treatment of developmental disorders” (Ovid Therapeutics Inc., priority 2018, dated 2025)",
  "format_in_all_cases": "in vivo, mouse",
  "key": {"Fmr1 KO2 mice [1]": {"test_system": "Fmr1 KO2 mice", "test": "Hyponeophagia (anxiety, latency to eat), Fmr1 KO2 mice", "source_text": "(§1) Mutant fmr1 knockout (KO) mice recapitulate the Fragile X syndrome (FXS) phenotype and represent a preclinical model for assessment of putative drug treatments. In this study three different mice models of FXS were used: Fmr1 KO1 is the original Fmr1 knockout animal that carries an insertion in exon 5. See, e.g., Bakker C E, et al., The Dutch-Belgian Fragile X Consortium, Fmr1 knockout mice: A model to study fragile X mental retardation. Cell. 1994; 78:23-33 It is a protein null, although Fmr1 mRNA is still present. It is backcrossed to the C57/B16 strain. Subsequently, these mice were bred into different background strains, such as the FVB inbred mouse strain. Fmr1 KO2 is a null allele at Fmr1 generated by deletion of the promoter and first exon of Fmr1. See, Mientjes, E J et al., The generation of a conditional Fmr1 knock out mouse model to study Fmrp function in vivo. Neurobiology of Disease (2006) 21(3): 549-555. It is both protein and mRNA null. Backcrossed to the C57/B16 strain. Genotyping was accomplished using TransnetXY Automated Genotyping (http://www.transnetyx.com/). TRANSNETYX, INC., 8110 Cordova Rd. Suite 119, Cordova, TN 38016, USA.\n(§2) The mice were housed in plastic cages (35×30×12 cm), 5 in each and habituated to the animal facilities for at least a week before test. The room temperature (21±2° C.), relative humidity (55±5%), a 12-h light-dark cycle (lights on 7 a.m.-7 p.m.) and air exchange (16 times per h) were automatically controlled. The animals had free access to commercial food pellets and water. Testing was conducted during the light phase. Testing was conducted on Fmr1 knockout mice and their wild-type (WT) littermates. Ten mice per treatment group, 14 weeks of age, were used for behavioral experiments. Experiments were conducted in line with the requirements of the UK Animals (Scientific Procedures) Act, 1986.\n(§3) Oral dosing was performed by using 1.5-in. curved, 20-gauge, stainless steel feeding needles with a 2.25-mm ball (Braintree Scientific, Braintree, MA). Each gavage treatment was given in 0.5% methyl cellulose (Methyl Cellulose M0512, Sigma-Aldrich, St Louis, MO) used as vehicle with or without treatment compounds. The same veterinarian, blinded to the treatment groups, performed the procedure, and documented animal reactions to oral gavage. Reactions considered to indicate stress were defined as excessive struggling during gavage or abnormal behavior after gavage (labored breathing, frozen stance, exaggerated jumping, shuddering, and hunched posture).\n(§4) For experiments all mice were tested once in the same apparatus. Prior to testing, mice not in the study were placed in the apparatus for some minutes before the experiment. The apparatus was then cleaned with moist and dry tissues before testing each mouse. The aim was to create a low but constant background mouse odor for all experimental subjects. All experiments were conducted with the experimenters blind to genotype and drug treatment during all testing and data analysis. Separate investigators prepared and coded dosing solutions, allocated the mice to the study treatment groups, dosed the animals, and collected the behavioral data. Data were analyzed by one-way analysis of variance (ANOVA) followed by post-hoc comparisons where appropriate using Tukey's Multiple Comparison Test. Data are represented as the mean and standard error of the mean (SEM).\n4. Hyponeophagia (inhibition of feeding) is used as a measure of anxiety which can be produced by a novel environment, particularly in rodents. […]"}, "Fmr1 KO2 mice [2]": {"test_system": "Fmr1 KO2 mice", "test": "Open field hyperactivity (locomotor activity), Fmr1 KO2 mice", "source_text": "as §1, §2, §3, §4\n1. […]"}, "Fmr1 KO1 mice": {"test_system": "Fmr1 KO1 mice", "test": "Open field repetitive behavior: counter revolutions (CCW), Fmr1 KO1 mice", "source_text": "as §1, §2, §3, §4\n2. Open Field Repetitive Behaviors (RB) (stereotypies: anticlockwise circling and self grooming). Fmr1 KO1 mice display the autism-like phenotypes of repetitive behaviors like counter revolutions (CCW), self grooming and stereotypy that typically involves behaviors such as head bobbing. […]"}},
  "data": [
    {"compound": "N[C@H]1C=C(C(=O)O)CC1=C(F)F", "note": "[Compound, (S)-3-Amino-4-(difluoromethylenyl)cyclopent-1-ene-1-carboxylic acid]", "values": [
      {"measurement": "Hyponeophagia (latency to eat), WT-Veh vs. KO2-Compound: Significant?", "setting": "Fmr1 KO2 mice [1]; 0.01 mg/Kg PO QD seven days", "result": "Yes"},
      {"measurement": "Hyponeophagia (latency to eat), WT-Veh vs. KO2-Compound: Significant?", "setting": "Fmr1 KO2 mice [1]; 0.05 mg/Kg PO QD seven days", "result": "No"},
      {"measurement": "Hyponeophagia (latency to eat), WT-Veh vs. KO2-Compound: Summary", "setting": "Fmr1 KO2 mice [1]; 0.05 mg/Kg PO QD seven days", "result": "ns"},
      {"measurement": "Hyponeophagia (latency to eat), WT-Veh vs. KO2-Compound: Significant?", "setting": "Fmr1 KO2 mice [1]; 0.1 mg/Kg PO QD seven days", "result": "No"},
      {"measurement": "Hyponeophagia (latency to eat), WT-Veh vs. KO2-Compound: Summary", "setting": "Fmr1 KO2 mice [1]; 0.1 mg/Kg PO QD seven days", "result": "ns"},
      {"measurement": "Effect on latency to eat in hyponeophagia test (FIG. 6)", "setting": "Fmr1 KO2 mice [1]; 0.05 and 0.1 mg/Kg", "result": "decreasing their latency to eat to virtually control levels"},
      {"measurement": "Open field locomotor activity (total distance traveled), WT-Veh vs. KO2-Compound: Significant?", "setting": "Fmr1 KO2 mice [2]; 0.01 mg/Kg PO QD seven days", "result": "Yes"},
      {"measurement": "Open field locomotor activity (total distance traveled), WT-Veh vs. KO2-Compound: Significant?", "setting": "Fmr1 KO2 mice [2]; 0.05 mg/Kg PO QD seven days", "result": "Yes"},
      {"measurement": "Open field locomotor activity (total distance traveled), WT-Veh vs. KO2-Compound: Significant?", "setting": "Fmr1 KO2 mice [2]; 0.1 mg/Kg PO QD seven days", "result": "No"},
      {"measurement": "Open field locomotor activity (total distance traveled), WT-Veh vs. KO2-Compound: Summary", "setting": "Fmr1 KO2 mice [2]; 0.1 mg/Kg PO QD seven days", "result": "ns"},
      {"measurement": "Open field counter revolutions (CCW), WT-Veh vs. KO1-Compound: Significant?", "setting": "Fmr1 KO1 mice; 0.01 mg/Kg PO QD seven days", "result": "Yes"},
      {"measurement": "Open field counter revolutions (CCW), WT-Veh vs. KO1-Compound: Significant?", "setting": "Fmr1 KO1 mice; 0.05 mg/Kg PO QD seven days", "result": "No"},
      {"measurement": "Open field counter revolutions (CCW), WT-Veh vs. KO1-Compound: Summary", "setting": "Fmr1 KO1 mice; 0.05 mg/Kg PO QD seven days", "result": "ns"},
      {"measurement": "Open field counter revolutions (CCW), WT-Veh vs. KO1-Compound: Significant?", "setting": "Fmr1 KO1 mice; 0.1 mg/Kg PO QD seven days", "result": "No"},
      {"measurement": "Open field counter revolutions (CCW), WT-Veh vs. KO1-Compound: Summary", "setting": "Fmr1 KO1 mice; 0.1 mg/Kg PO QD seven days", "result": "ns"},
      {"measurement": "Effect on CCW repetitive behavior (FIG. 8)", "setting": "Fmr1 KO1 mice; 0.05 and 0.1 mg/Kg", "result": "reversed CCW repetitive behavior"}
    ]}
  ]
}
